Laboratory results as given in patent US20210220408A1, “ARYL HYDROCARBON RECEPTOR ANTAGONISTS AND METHODS OF USE” (Magenta Therapeutics Inc., priority 2018, published 2021).

Target: T1, aryl hydrocarbon receptor (AHR) (Homo sapiens, UniProt P35869)
T1 sequence (P35869 11-848): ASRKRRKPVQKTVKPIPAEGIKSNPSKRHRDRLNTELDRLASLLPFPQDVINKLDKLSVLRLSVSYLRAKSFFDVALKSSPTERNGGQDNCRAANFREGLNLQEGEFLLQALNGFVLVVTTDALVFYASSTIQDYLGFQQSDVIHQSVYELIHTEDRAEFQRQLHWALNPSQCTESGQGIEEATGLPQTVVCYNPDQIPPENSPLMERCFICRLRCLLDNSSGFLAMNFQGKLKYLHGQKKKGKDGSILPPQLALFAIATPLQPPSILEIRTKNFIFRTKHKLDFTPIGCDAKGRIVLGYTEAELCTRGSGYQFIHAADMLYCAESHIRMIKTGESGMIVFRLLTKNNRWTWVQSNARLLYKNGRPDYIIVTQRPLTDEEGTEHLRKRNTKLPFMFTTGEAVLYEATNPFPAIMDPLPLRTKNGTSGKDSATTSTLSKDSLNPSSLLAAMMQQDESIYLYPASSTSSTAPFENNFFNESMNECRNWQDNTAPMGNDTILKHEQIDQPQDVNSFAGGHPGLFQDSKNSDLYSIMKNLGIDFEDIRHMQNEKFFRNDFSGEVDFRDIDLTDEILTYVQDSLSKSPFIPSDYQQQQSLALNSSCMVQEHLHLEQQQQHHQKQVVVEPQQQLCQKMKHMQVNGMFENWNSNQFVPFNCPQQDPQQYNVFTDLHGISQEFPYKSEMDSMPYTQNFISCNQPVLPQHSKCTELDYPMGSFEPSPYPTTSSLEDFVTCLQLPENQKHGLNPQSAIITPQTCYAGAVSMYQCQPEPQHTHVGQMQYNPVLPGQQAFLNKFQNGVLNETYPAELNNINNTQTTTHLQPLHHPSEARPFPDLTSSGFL
Assay: DRE-Luciferase reporter high-throughput screen (AHR antagonist, VAF347-activated)
Description: HepG2 hepatocellular carcinoma cells were transfected with a dioxin-response element (DRE) Firefly luciferase reporter construct. Luciferase transcription was activated with the aryl hydrocarbon receptor (AHR) agonist, VAF347. Addition of an AHR antagonist results in inhibition of the luciferase transcription and a loss of signal in the assay.
HepG2, a hepatocellular carcinoma cell line, was transfected with the dioxin-response element Firefly luciferase reporter construct using the TransIT-transfection system. Prior to transfection, HepG2 cells (Sigma) were cultured at 90% confluency in Eagle's Modified Essential Medium (Sigma)+2 mM Glutamine (Sigma), +1^% Non Essential Amino Acids (Sigma)+10% Fetal Bovine Serum (Hyclone) and harvested and counted (Biorad TC20 cell counter). OptilMEM serum-free media and TransIT (Mirus) were mixed for transfection in 150 mm dishes by adding 240 μL Transit to 3.0 mL OptiMEM, vortexing briefly to mix, and incubating at room temperature for 20 minutes. The DNA mixture was prepared by adding 80 μg plasmid (pGudLuc6.1 plasmid, Garrison et al., (1996) Fundam. Appl. Toxicol., 30, 194-203), inverting to mix, and incubating at room temperature for 30 minutes. 30×10^6 HepG2 cells were seeded in 30 mL media and 3.3 mL of the DNA, OptiMEM, and TransIT mixture was added dropwise to the plate. The plate was mixed by rocking and incubated at 37° C./5% CO2 overnight. The next day, cells were harvested by aspirating media, washing once with sterile phosphate buffered saline (PBS, Gibco), trypsinzing with 0.05% Trypsin (Corning) and harvesting cells with culture medium, and freezing with Cell Freezing Media (Gibco) at 5 50×10^6 cells/vial in 1 mL/vial.
Transiently-transfected frozen HepG2 cells with DRE-Luciferase, were thawed in a 37° C. water bath and resuspended in complete media. 4 μL cells at 15,000 cells per well was transferred into the wells of a 1536-well Alphaplate assay plate (PerkinElmer) using TEMPEST liquid dispenser. The plate was centrifuged at 1000 rpm for 1 minute. 30 nL of the controls (1 μM (S)-2-(6-((2-(1H-indol-3-yl)ethyl)amino)-2-(5-fluoropyridin-3-yl)-9H-purin-9-yl)propan-1-ol or 100% DMSO) were transferred to the assay plate using the Pin Tool on BRAVO. 1 μL of VAF347 (15 nM final concentration) in complete media was added to the wells using TEMPEST. The plate was centrifuged at 1000 rpm for 1 minute and incubated at 37° C./5% CO2 overnight. After incubation, the plate was removed from the incubator and brought to room temperature. 2 μL of room temperature Steady-Glo luciferase detection reagent (Promega) was added to the wells with TEMPEST. The plate was centrifuged at 2000 rpm for 1 minute, sealed with clear plastic seal and kept at room temperature for 15 minutes prior to measuring luminescence on ENVISION.
Approximately 166,000 compounds were screened in 132 1536-well plates in the luciferase reporter gene assay at a final concentration of 12 μM. […] Each compound was tested at 0.1 μM, 1.0 μM, and 10 μM in the DRE luciferase assay and Cell Titer Glo cytotoxicity assay (Promega). […] 512 compounds were selected for 10-point dose-response in the AHR luciferase reporter assay and the Cell Titer Glo cytotoxicity assay.

| IC50 [nM] | SMILES |
| --- | --- |
| 1000 to 2000 | Brc1ccc(-c2ccc(NC3CCCC3)nn2)cc1 [49B] |
| 1000 to 2000 | Cc1cccnc1NC(=O)c1cc2c(ccc3ccccc32)[nH]1 [51A] |
| 1000 to 2000 | Cc1ccc(OCc2nc(N)nc(N(C)C)n2)cc1C [51B] |
| 1000 to 2000 | COc1ccccc1NC(=O)c1sc2nc(N3CCOCC3)c3c(c2c1N)CCCC3 [52A] |
| 1000 to 2000 | Cn1c(Cl)cnc1-c1cc(=O)c2cc(Cl)ccc2o1 [53B] |
| 500 to 1000 | Fc1ccccc1OCc1cnn(-c2ccccc2)c1 [54B] |
| 1000 to 2000 | CC(=O)c1csc(COc2cc(Cl)cc(Cl)c2)n1 [55A] |
| 500 to 1000 | CC(=O)Nc1cn(-c2ccccc2)nc1-c1ccc(Cl)s1 [55B] |
| > 2000 | CN1CCN(c2nc(-c3cc(F)ccc3F)cs2)CC1 [56A] |
| 500 to 1000 | CC(=O)Oc1ccc2c(=O)c(-c3cnn(-c4ccccc4)c3)coc2c1C [56B] |
| 1000 to 2000 | CS(=O)(=O)N1CCc2cc(-c3csc(Cc4cn5cc(Cl)cc(Cl)c5n4)n3)ccc21 [57A] |
| 1000 to 2000 | CCOC(=O)Nc1ccc(-n2ccc(C)n2)cc1 [57B] |
| > 2000 | Cc1nn(-c2ccccc2)c(N)c1-c1nc(-c2ccc(Cl)cc2)cs1 [59A] |
| 500 to 1000 | CN(C)C(=O)c1ccc(-c2cc(C(F)(F)F)nn2C)s1 [59B] |
| 1000 to 2000 | CNC(=O)c1ccc(-c2cc(C(F)(F)F)nn2C)s1 [60B] |
| 1000 to 2000 | O=C(NC1CC1)c1cnc(-c2noc3ccccc23)s1 [61A] |
| 500 to 1000 | Cc1cc(C)c2cc(C(=O)N(C)Cc3ccc(C)o3)[nH]c2c1 [62B] |
| > 2000 | Cc1nc(-c2ccccc2F)sc1C(=O)NCc1ccccn1 [63A] |
| 1000 to 2000 | c1ccc2nc(SCc3nc4ccccc4[nH]3)ccc2c1 [65B] |
| 1000 to 2000 | Nc1cnc(C(=O)c2ccc(Cl)cc2)s1 [66A] |
| 1000 to 2000 | Cc1nn(-c2nc3ccccc3[nH]2)c2c1C(=O)CC(c1cccs1)C2 (stereo not drawn) [66B] |
| 1000 to 2000 | COc1ccc(N2CCN(c3nc(OC)nc(OC)n3)CC2)cc1 [68A] |
| 1000 to 2000 | CN(Cc1ccsc1)c1nc2ccccn2c1[N+](=O)[O-] [68B] |
| 1000 to 2000 | CC(=O)c1cnc(N2CCN(c3cccc(Cl)c3)CC2)nc1C [69A] |

| IC50 [nM] | SMILES |
| --- | --- |
| < 200 | CSc1nc2cc(-c3ccc(Cl)cc3)nn2c(N)c1C#N [69B] |
| > 2000 | O=C1CSC(N2CCN(c3ccc(Cl)c(Cl)c3)CC2)=N1 [71A] |
| 1000 to 2000 | COc1ccc(-c2cnn3c(C)cc(C)nc23)cc1OC [71B] |
| < 200 | Clc1ccc(-c2nc3cc(Br)cnc3[nH]2)cc1 [72B] |
| > 2000 | FC(F)(F)c1nnc2ccc(N3CCN(c4ccccc4)CC3)nn12 [73A] |
| 500 to 1000 | CCOc1ccc(-n2nc3ccc(NC(=O)COc4ccccc4Cl)cc3n2)cc1 [73B] |
| 1000 to 2000 | Cc1nc2nc(SCc3ccc(Cl)cc3)nn2c(C)c1Cl [74B] |
| 1000 to 2000 | c1ccc(N2CCN(c3nc(N4CCCCC4)nc4nccnc34)CC2)cc1 [75A] |
| 1000 to 2000 | Cc1nc(N2CCN(c3ccccc3F)CC2)nc2c1C(=O)CCC2 [77A] |
| > 2000 | Cc1cnn(Cc2ncc(-c3ccccc3Br)o2)c1 [77B] |
| 500 to 1000 | COc1ccc(Nc2oc(-c3ccccc3C)nc2C#N)cc1 [78B] |
| 1000 to 2000 | Cc1cc(N(C)C)nc(N2CCN(C(=O)Nc3cccc(F)c3)CC2)n1 [79A] |
| 1000 to 2000 | Cc1cc(C)c(C#N)c(SCc2cc(-c3cccs3)on2)n1 [79B] |
| 1000 to 2000 | CCOC(=O)N1CCN(c2nc(Nc3ccc(C)cc3C)c3nccnc3n2)CC1 [82A] |
| 500 to 1000 | COc1ccc(NC(=O)CSc2nnc(-c3sc4nc(C)cc(C)c4c3N)o2)cc1 [82B] |
| > 2000 | Clc1ccc(/C=N/Nc2nc3cc(Cl)ccc3[nH]2)cc1 [83A] |
| 1000 to 2000 | COC(OC)c1ccnc(-c2ccc(I)c(F)c2)n1 [84A] |
| 500 to 1000 | c1ccc(-c2nc(-c3ccc4c(c3)CCO4)no2)cc1 [85B] |
| 1000 to 2000 | COc1cccc(-c2cc(C(F)(F)F)nc(-n3cc(Cl)cn3)n2)c1 [86A] |
| 200 to 500 | Cc1c(-c2nc(-c3ccc(C(C)(C)C)cc3)no2)n(C)oc1=O [87B] |
| 200 to 500 | Cc1c(COc2ccccc2C#N)cccc1[N+](=O)[O-] [88B] |
| > 2000 | COc1cccc(-c2ccc(SCc3cccnc3)nn2)c1 [89A] |
| 1000 to 2000 | COc1ccc(Cl)cc1C(=O)NCc1ccc(Cl)cc1 [89B] |
| > 2000 | CCOc1ccc(-c2ccc(SCC)nn2)cc1 [90A] |

Continued, compound first:

| SMILES | IC50 [nM] |
| --- | --- |
| Cc1ccc2cc(NC(=O)c3cccc4c3OC(C)(C)C4)ccc2n1 [50A] | > 2000 |
| CN(/N=C/c1cc(Br)cs1)c1ccc(Cl)nn1 [50B] | 500 to 1000 |
| O=[N+]([O-])c1ccc(-n2cnc(-c3ccc(F)cc3)c2)nc1 [52B] | 200 to 500 |
| Cn1c(SCc2ccccc2Cl)nnc1-c1csc(-c2cccnc2)n1 [53A] | 1000 to 2000 |
| c1ccc(-c2nc(COc3cccc(-n4cnnn4)c3)cs2)cc1 [54A] | 1000 to 2000 |
| CCN(C(=O)C1CC1)c1nc(-c2ccc(OC)cc2)cs1 [58A] | 1000 to 2000 |
| O=C(CNC1=NS(=O)(=O)c2ccccc21)OCc1cn(-c2ccccc2)nc1-c1ccccc1 [58B] | > 2000 |
| O=C(NCCc1ccccc1)c1cnc(-c2noc3ccccc23)s1 [60A] | > 2000 |
| Cc1c(Br)c(C(=O)N2CCc3ccccc32)nn1C [61B] | 1000 to 2000 |
| Cc1csc(-c2ccc(NC(=O)NCc3cc(C)on3)cc2)n1 [62A] | > 2000 |
| CCc1cccc2c(C(=O)CSc3nnnn3C)c[nH]c12 [63B] | 1000 to 2000 |
| CC(=O)c1sc(-c2ccc(Oc3ncnc4sccc34)cc2)nc1C [64A] | 1000 to 2000 |
| Cc1ccc2[nH]c(SCc3ccccc3C)nc2c1 [64B] | 500 to 1000 |
| CC(C)NC(=O)c1ccc2c(-c3nccs3)noc2c1 [65A] | 1000 to 2000 |
| Cc1cc([N+](=O)[O-])c(N)cc1N1CCN(c2ccccc2)CC1 [67A] | 1000 to 2000 |
| Cn1c(COc2cccc3ccccc23)nc2ccccc21 [67B] | 1000 to 2000 |
| Cc1cc(C)nc(N2CCN(c3ccc(Cl)cc3)CC2)n1 [70A] | > 2000 |

| SMILES | IC50 [nM] |
| --- | --- |
| N#Cc1cnc2c(-c3ccc(Cl)cc3)cnn2c1 [70B] | 500 to 1000 |
| COc1ccc(N2CCN(c3cc(C)nn4cnnc34)CC2)cc1 [74A] | > 2000 |
| Cc1c(C(N)=O)nnc2cc(-c3ccccc3)nn12 [75B] | 1000 to 2000 |
| CC1CN=C(N2CCN(c3nc4c(cc3C#N)CCC4)CC2)S1 (stereo not drawn) [76A] | 1000 to 2000 |
| Ic1ccc(-c2cnc(-c3ccncc3)o2)cc1 [76B] | 200 to 500 |
| Cc1ccc(N2CCN(C(=O)Nc3cc(F)cc(F)c3)CC2)nn1 [78A] | 1000 to 2000 |
| N#Cc1ccc(N2CCN(C(=O)Nc3cccc(C(F)(F)F)c3)CC2)nc1 [80A] | 1000 to 2000 |
| Nc1nccc(-c2cc(-c3cccc(C(F)(F)F)c3)no2)n1 [80B] | 500 to 1000 |
| O=C(Nc1cccnc1N1CCN(c2ncc(C(F)(F)F)cc2Cl)CC1)c1ccc(F)cc1 [81A] | 1000 to 2000 |
| Fc1ccc(-c2cc(N3CCCCC3)on2)cc1 [81B] | > 2000 |
| CCC(C)C(=O)Nc1ccc(-c2nnc(-c3ccccc3C)o2)cc1 (stereo not drawn) [83B] | 500 to 1000 |
| Clc1ccc(-c2noc(-c3csnn3)n2)cc1 [84B] | 500 to 1000 |
| CSc1cc(CSc2ccc(Cl)cc2)nc(-c2ccccn2)n1 [85A] | 1000 to 2000 |
| Clc1ccc(-c2noc(-c3c[nH]nc3-c3ccccc3)n2)cc1 [86B] | > 2000 |
| Clc1ccccc1CNc1ccc(-c2ccccc2)nn1 [87A] | 1000 to 2000 |
| COc1cccc(Nc2ccc(-c3ccccc3)nn2)c1 [88A] | > 2000 |
